Measured values reported in US8841290B2, “Substituted tetrahydronaphthalenes, method for the production thereof, and use thereof as drugs” (Sanofi, priority 2009, dated 2014).
Values after ≈ are worked out from the molar mass of the structure shown.

Tests used:
[1] = nephelometric (kinetic) solubility determination, phosphate buffer pH 7.4; assay type: physicochemical; conditions: for solubility kinetic: aqueous buffer, kinetic from dmso stock
Procedure: A DMSO solution of the test compound (2.5 mM; 0.5 μl) is pipetted into 200 μl of an aqueous test solution (e.g. phosphate-buffered saline, 10×, 1M, Sigma, adjusted to 10 mM, pH 7.4) in a 96-well microtiter plate, and the turbidity is measured at the resulting theoretical concentration for the test compound of 6.25 μM using a nephelometer (e.g. Nephelostar Galaxy, BMG Labtech). The concentration of the test compound in the aqueous test solution is then raised to a theoretical 12.5 μM by adding further DMSO solution (2.5 mM; 0.5 μl), and the turbidity measurement is repeated. Further additions of DMSO solutions (1 μl, 2.5 mM; 0.5 μl, 10 mM; then 9×1 μl, 10 mM resulting in theoretical concentrations of 25 μM, 50 μM, 100 μM, 150 μM, 200 μM, 250 μM, 300 μM, 350 μM, 400 μM, 450 μM and 500 μM) with turbidity measurement in between complete the measurement process.
Evaluation: The turbidity values from the nephelometer are plotted against the theoretical concentration of the test compound in the aqueous test solution. As soon as a significant turbidity is detected (e.g. 5 times above the control value of the aqueous test solution) at a theoretical concentration, the level of concentration below this is stated to be the solubility limit of the test compound in the test solution. Thus, the maximum possible measurement range emerges as values<6.25 μM, 6.25-500 μM and >500 μM.

human MCH receptor = biological target: T1, human MCH receptor (Homo sapiens, UniProt Q99705); test: calcium mobilization assay (FLIPR), functional IC50 of MCH1R antagonists; assay type: cell-based; conditions: recombinant HEK293 cell line expressing the human MCH receptor; calcium flux after addition of agonist (MCH); read-out: IC50
T1 construct: expressed in transfected cells
T1 sequence (Q99705 whole entry): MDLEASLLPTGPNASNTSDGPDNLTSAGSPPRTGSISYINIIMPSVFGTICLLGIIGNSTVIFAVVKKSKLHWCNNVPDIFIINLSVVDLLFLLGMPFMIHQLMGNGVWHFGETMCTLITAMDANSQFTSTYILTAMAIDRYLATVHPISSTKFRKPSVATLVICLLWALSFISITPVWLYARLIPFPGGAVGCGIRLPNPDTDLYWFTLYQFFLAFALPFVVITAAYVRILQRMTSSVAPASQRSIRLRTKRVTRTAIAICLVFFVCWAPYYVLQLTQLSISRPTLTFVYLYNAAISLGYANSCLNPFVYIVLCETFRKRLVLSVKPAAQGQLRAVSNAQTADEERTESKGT
Text: A difference from the reference was, however, the use of the plasmid pEAK8 from EDGE Biosystems (USA) for the construction of the expression vector. The host used for the transfection was a transformed HEK cell line named “PEAK Stable Cells” (likewise from EDGE Biosystems). Functional measurements of the cellular calcium flux after addition of agonist (MCH) in the presence of ligand of the invention took place with the aid of the FLIPR apparatus from Molecular Devices (USA), using protocols of the apparatus manufacturer.

[2] = nephelometry, Table 8, reference compounds versus inventive examples

SMILES	solubility kinetic ([1]; nephelometric, Table 7)	IC50 (human MCH receptor)	pH 7.4 (solubility) [1, 2]	solubility kinetic [1, 2]
CCCCOc1ccc(C(=O)N[C@H]2CCc3cc(CN4CCCC4)ccc3C2)cc1 [Example 6-01]	13 µg/mL (≈ 32 µM)	127 nM	0.013 mg/ml	–
O=C(N[C@H]1CCc2cc(CN3CCCC3)ccc2C1)c1ccc(-c2ccc(F)cc2)cc1 [Ref-1, reference compound]	–	–	–	3 µg/mL (≈ 7 µM)
CN1CCCC1c1ccc2c(c1)CC[C@H](N(C)C(=O)c1ccc(OCC3CC3)cn1)C2 (stereo partly drawn) [Example 5-10]	13 µg/mL (≈ 31 µM)	646 nM	–	–
CC[C@H](O)COc1ccc(C(=O)N(C)[C@H]2CCc3cc(CN4CCCC4)ccc3C2)cc1 [Example 6-04]	> 275 µg/mL	1200 nM	>0.275 mg/ml	–
CC(C)COc1ccc(C(=O)N(C)[C@H]2CCc3cc(CNCC4CCOCC4)ccc3C2)nc1 [Example 2-09]	> 290 µg/mL	360 nM	–	–
CN(C(=O)c1ccc(OCC2CC2)cc1)[C@H]1CCc2cc(CNCC3CCOCC3)ccc2C1 [Example 1-01, 4-Cyclopropylmethoxy-N-methyl-N—((S)-6-{[(tetrahydropyran-4-ylmethyl)amino]methyl}-1,2,3,4-tetrahydronaphthalen-2-yl)benzamide]	153 µg/mL (≈ 331 µM)	121 nM	–	–
CN(C(=O)c1ccc(OCC2CC2)cn1)[C@H]1CCc2cc(C3CCCN3)ccc2C1 (stereo partly drawn) [Example 4-04, N-Methyl-N—((S)-6-pyrrolidin-2-yl-1,2,3,4-tetrahydronaphthalen-2-yl)-5-cyclopropylmethoxypyridine-2-carboxamide]	> 41 µg/mL	703 nM	–	–
CN(C(=O)c1ccc(OCC2CC2)cc1)[C@H]1CCc2cc([C@H]3CCCN3CC3CCOCC3)ccc2C1 [Example 5-03]	15 µg/mL (≈ 29.8 µM)	858 nM	–	–
C[C@H]1CC[C@H](c2ccc3c(c2)CC[C@H](N(C)C(=O)c2ccc(OCC4CC4)cc2)C3)N1 [Example 4-02, 4-Cyclopropylmethoxy-N-methyl-N—[(S)-6-((2R,5S)-5-methylpyrrolidin-2-yl)-1,2,3,4-tetrahydronaphthalen-2-yl]benzamide]	10 µg/mL (≈ 23.9 µM)	228 nM	–	–
CCCOc1ccc(C(=O)N(C)[C@H]2CCc3cc(CNCC4CCOCC4)ccc3C2)nc1 [Example 2-08]	> 283 µg/mL	220 nM	–	–
CN(C(=O)c1ccc(OCC2CC2)cc1)[C@H]1CCc2cc(CNCCC3CCCO3)ccc2C1 (stereo partly drawn) [Example 1-10]	> 288 µg/mL	140 nM	–	–
CN(C(=O)c1ccc(OCC2CC2)cc1)[C@H]1CCc2cc(CNCC3(C)CCOCC3)ccc2C1 [Example 1-08]	> 295 µg/mL	126 nM	–	–
CC1CCN(c2ccc(C(=O)N(C)[C@H]3CCc4cc(CNCC5CCOCC5)ccc4C3)cc2)CC1 [Example 2-03]	> 302 µg/mL	1070 nM	–	–
CC[C@H](O)COc1ccc(C(=O)N[C@H]2CCc3cc(CN4CCCC4)ccc3C2)cc1 [Example 6-02]	> 268 µg/mL	223 nM	>0.268 mg/ml	–
CN(C(=O)c1ccc(OCC2CC2)cc1)[C@H]1CCc2cc(CNC[C@@H]3CCCO3)ccc2C1 [Example 1-02]	> 281 µg/mL	215 nM	–	–
CN1CCC[C@@H]1c1ccc2c(c1)CC[C@H](N(C)C(=O)c1ccc(OCC3CC3)cc1)C2 [Example 5-01]	> 266 µg/mL	137 nM	–	–
CCN1[C@@H](c2ccc3c(c2)CC[C@H](N(C)C(=O)c2ccc(OCC4CC4)cc2)C3)CC[C@@H]1C [Example 5-05]	168 µg/mL (≈ 376 µM)	519 nM	–	–
CN(C(=O)c1ccc(OCC2CC2)cc1)[C@H]1CCc2cc(CNCC3(C)CCCO3)ccc2C1 (stereo partly drawn) [Example 1-11]	> 288 µg/mL	172 nM	–	–
CCCCOc1ccc(C(=O)N(C)[C@H]2CCc3cc(CN4CCCC4)ccc3C2)cc1 [Example 6-03]	> 267 µg/mL	327 nM	>0.267 mg/ml	–
CN(C(=O)c1ccc(OCC2CC2)cc1)[C@H]1CCc2cc(CNC[C@H]3CCCO3)ccc2C1 [Example 1-03]	> 281 µg/mL	130 nM	–	–
CN(C(=O)c1ccc(NC(=O)C(F)(F)F)cc1)[C@H]1CCc2cc(CNCC3CCOCC3)ccc2C1 [Example 2-02]	> 309 µg/mL	1360 nM	–	–
CCCCOc1ccc(C(=O)N(C)[C@H]2CCc3cc(CNCC4CCOCC4)ccc3C2)cc1 [Example 2-06]	203 µg/mL (≈ 437 µM)	146 nM	–	–
CN(Cc1ccc2c(c1)CC[C@H](N(C)C(=O)c1ccc(OCC3CC3)cc1)C2)CC1CCOCC1 [Example 1-13]	> 295 µg/mL	284 nM	–	–
CN(C(=O)c1ccc(OCC2CC2)cn1)[C@H]1CCc2cc(CNCC3CCOCC3)ccc2C1 [Example 3, 5-Cyclopropylmethoxypyridine-2-carboxylic acid methyl-((S)-6-{[(tetrahydropyran-4-ylmethyl)amino]methyl}-1,2,3,4-tetrahydronaphthalen-2-yl)amide]	> 289 µg/mL	180 nM	–	–
CN(C(=O)c1ccc(-c2ccc(F)cc2)cc1)[C@H]1CCc2cc(CN3CCCC3)ccc2C1 [Ref-2, reference compound]	–	–	–	7 µg/mL (≈ 15.8 µM)

Second part, led by results:

solubility kinetic ([1]; nephelometric, Table 7)	IC50 (human MCH receptor)	pH 7.4 (solubility) [1, 2]	SMILES	solubility kinetic [1, 2]
> 287 µg/mL	1100 nM	–	CN(C(=O)c1ccc(OCC2CC2)cn1)[C@H]1CCc2cc(CN3CC4CCC3CC4)ccc2C1 [Example 7-33]	–
> 275 µg/mL	108 nM	–	CCOCCNCc1ccc2c(c1)CC[C@H](N(C)C(=O)c1ccc(OCC3CC3)cc1)C2 [Example 7-23]	–
> 267 µg/mL	668 nM	–	CCN(CC)Cc1ccc2c(c1)CC[C@H](N(C)C(=O)c1ccc(OCC3CC3)cc1)C2 [Example 7-18]	–
> 266 µg/mL	420 nM	–	CN(C(=O)c1ccc(OCC2CC2)cc1)[C@H]1CCc2cc(CNCC3CC3)ccc2C1 [Example 7-08]	–
> 282 µg/mL	149 nM	–	CC(C)OCCNCc1ccc2c(c1)CC[C@H](N(C)C(=O)c1ccc(OCC3CC3)cc1)C2 [Example 7-26]	–
> 272 µg/mL	92 nM	–	O=C(N[C@H]1CCc2cc(CN3C[C@@H]4CC[C@H]3C4)ccc2C1)c1ccc(OCC2CC2)cc1 [Example 7-14]	–
168 µg/mL (≈ 375 µM)	756 nM	–	CN(C(=O)c1ccc(OCC2CC2)cn1)[C@H]1CCc2cc(CN3CCCCCC3)ccc2C1 [Example 7-27]	–
> 288 µg/mL	148 nM	–	COCC1(CNCc2ccc3c(c2)CC[C@H](N(C)C(=O)c2ccc(OCC4CC4)cc2)C3)CC1 [Example 7-22]	–
> 275 µg/mL	145 nM	–	CC(C)CCNCc1ccc2c(c1)CC[C@H](N(C)C(=O)c1ccc(OCC3CC3)cn1)C2 [Example 7-32]	–
> 275 µg/mL	133 nM	–	COCCCNCc1ccc2c(c1)CC[C@H](N(C)C(=O)c1ccc(OCC3CC3)cc1)C2 [Example 7-21]	–
> 280 µg/mL	336 nM	–	CN(C(=O)c1ccc(OCC2CC2)cc1)[C@H]1CCc2cc(CNC3CCCCC3)ccc2C1 [Example 7-07]	–
> 288 µg/mL	152 nM	–	CN(C(=O)c1ccc(OCC2CC2)cn1)[C@H]1CCc2cc(CN3CCC(C)(C)CC3)ccc2C1 [Example 7-28]	–
> 266 µg/mL	1100 nM	–	CN(C(=O)c1ccc(OCC2CC2)cc1)[C@H]1CCc2cc(CNC3CCC3)ccc2C1 [Example 7-10]	–
> 275 µg/mL	384 nM	–	COC[C@H](C)NCc1ccc2c(c1)CC[C@H](N(C)C(=O)c1ccc(OCC3CC3)cc1)C2 [Example 7-24]	–
82 µg/mL (≈ 190 µM)	245 nM	–	CCCCOc1ccc(C(=O)N[C@H]2CCc3cc(CN4CC5CCC4C5)ccc3C2)cc1 (stereo partly drawn) [Example 7-01]	–
> 289 µg/mL	286 nM	–	COCC(C)(C)CNCc1ccc2c(c1)CC[C@H](N(C)C(=O)c1ccc(OCC3CC3)cc1)C2 [Example 7-25]	–
> 274 µg/mL	898 nM	–	CN(C(=O)c1ccc(OCC2CC2)cc1)[C@H]1CCc2cc(CNCC(C)(C)C)ccc2C1 [Example 7-11]	–
> 280 µg/mL	336 nM	–	CN(C(=O)c1ccc(OCC2CC2)cc1)[C@H]1CCc2cc(CN3CCCCCC3)ccc2C1 [Example 7-15]	–
> 282 µg/mL	133 nM	–	CCOCCCNCc1ccc2c(c1)CC[C@H](N(C)C(=O)c1ccc(OCC3CC3)cc1)C2 [Example 7-20]	–
> 281 µg/mL	215 nM	–	CC1CCN(Cc2ccc3c(c2)CC[C@H](N(C)C(=O)c2ccc(OCC4CC4)cn2)C3)CC1 [Example 7-29]	–
> 281 µg/mL	190 nM	–	CCC1(CNCc2ccc3c(c2)CC[C@H](N(C)C(=O)c2ccc(OCC4CC4)cn2)C3)CC1 [Example 7-31]	–
> 275 µg/mL	375 nM	–	CN(C(=O)c1ccc(OCC2CC2)cn1)[C@H]1CCc2cc(CNCC(C)(C)C)ccc2C1 [Example 7-34]	–
